Measurements: patent US20250129021A1, “SMALL MOLECULE PROTEIN SYNTHESIS MODULATORS” (Interdict Bio, Inc., priority 2023, published 2025)

Columns and labels:
Type in all cases: biochemical
[1] = test system: MYC; experiment: In vitro transcription-translation (IVTT) assay, MYC reporter; details: IVTT assay, HeLa S3 lysate, MYC reporter, normalized sfGFP/mCherry ratio; half-log dilutions 30 μM-0.1 μM, 2 hrs at 30° C.
How it was run: (§1)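 Reporter: mCherry, P2A, then 3×FLAG-target peptide-sfGFP fusion, IRES-initiated; HeLa S3 lysate IVTT; cpd dilutions 30 μM−0.1 μM half-log in 100% DMSO (dilution-plate conc); DNA added last; 2 h, 30° C; PBS quench.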

[2] = test system: MCL-1; experiment: In vitro transcription-translation (IVTT) assay, MCL-1 reporter; details: IVTT, HeLa S3 lysate, 2 hrs at 30° C.; read-out: MCL1 IC50
Text: All reporter constructs have been cloned into the pT7CFE1-CHis plasmid (ThermoFisher #88860) using Gibson assembly procedures (NEB #E2611L). The parental pT7CFE1-CHis plasmid contains an EMCV IRES at the 5′UTR for translation initiation, a multiple-cloning site (MCS) for gene insertion, an optional C-terminal His-epitope tag, and polyA sequence in the 3′UTR to regulate mRNA stability. All reporters are designed to be inserted at the MCS to include a red fluorescent protein (mCherry), P2A self-cleaving peptide which releases the preceding mCherry protein product, and a fusion open reading frame containing a 3×FLAG epitope, a peptide sequence of interest (TEST), and green fluorescent protein (sfGFP).
Construct Plasmid Preparation: All plasmids are isolated from MACH1 cells (ThermoFisher) grown overnight in ampicillin-containing luria broth, and purified using ZymoPure Express Plasmid Midiprep Kit (Zymo Research). Constructs are sequenced verified and diluted to a working concentration of 110 ng/μL.
HeLa S3 Lysate Preparation: HeLa S3 cell pellets are acquired from Ipracell/Ipratech (Belgium) and shipped as 4 mL frozen cell pellets on dry ice for storage at −80° C. until use. The procedure for lysate preparation is as follows. Prepare 1× Lysis Buffer, cold and stored on ice:
(§2) Each preparation takes 8 cell pellets (4 ml packed volume each, approximately 1.0×10^9 cells per pellet). Thaw cell pellets from −80° C. on ice for 90 mins. Lay pellets horizontally on top of the ice and rotate every 30 mins to ensure even thawing. Once thawed, add 4 mL of cold lysis buffer to each pellet, and using a serological pipet, gently pipet up and down to break up clumps. Incubate resuspended cells in ice for an additional 30 mins (plunged into ice). During 30 min incubation, rinse and RNase-zap (Ambion) glass dounces (use loose pestle “A”), gently dry and place on ice until needed. Prepare RNase-free Eppendorf tubes for spinning and for batch storage. Add batch labels to 1.5-1.7 mL RNase-free microcentrifuge tubes (labeling scheme below). Each batch will have an extra 1.5-1.7 mL RNase-free microcentrifuge tube for 40 μL of lysate, label the top of this tube (labeling scheme below). After 30 min incubation, transfer all 8 mL of cell pellet to dounce. Cell lysis is complete after douncing 100 times. Aliquot cell lysis into 1.5-1.7 mL temporary-microcentrifuge tubes. Place tubes in centrifuge with “fins” out, and spin at 1,200×g for 5 mins. After the first spin use a 1 mL pipet to resuspend each tube and repeat spin. This acts as an additional lysis step, is more vigorous and increases lysate yield. During second spin get liquid N2 and a fresh conical tube on ice. After spin is complete, transfer supernatant (lysate) from microcentrifuge tubes into the 50 mL conical tube and keep on ice. Repeat steps 10-14 for all other cell pellets until completed. Once all cell lysate has been transferred to the 50 mL conical tube pipet to mix so the solution is homogenous. Transfer 1 mL of lysate into batch-labeled microcentrifuge tubes and flash freeze in liquid nitrogen. Be sure to pipet up and down to mix throughout transfer step. Place all tubes in the […] for long-term storage.
In vitro transcription-translation assay setup: Each assay includes a master mix containing lysate and shared components, a 96-well plate containing compound titrations for testing, a 96-well DNA plate with reporter constructs to be tested, 96-well skirted PCR plates, and 96-well flat-bottom, black, fluorescent assay plates. […]

[3] = test system: CCNTB1; experiment: In vitro transcription-translation (IVTT) assay, CCNTB1 reporter; details: HeLa S3 lysate, 2 hrs at 30° C.
Experimental: as §2
In vitro transcription-translation assay setup: Each assay includes a master mix containing lysate and shared components, a 96-well plate containing compound titrations for testing, a 96-well DNA plate with reporter constructs to be tested, 96-well skirted PCR plates, and 96-well flat-bottom, black, fluorescent assay plates. Reaction materials setup: (A) Master mix—15 mL conical tube (3 mL of HeLa S3 Lysate described above; 0.6 mL of ThermoFisher Accessory Proteins (#88882); 1.2 ml of ThermoFisher Reaction Mix (#88882); 0.54 mL of nuclease-free Water); (B) 96-Well Master Mix+Compound Plate (Half-log dilutions (30 μM−0.1 μM) of 4 compounds of interest are prepared in 100% DMSO); 96-Well DNA Plate (Five DNA constructs are plated into single columns within the plate. Row 1 of the column contains nuclease free H2O, all other wells contain 110 ng/μL plasmid DNA). Reactions are started by mixing 155 μL of master mix and 3.5 μL of compound serial dilutions, then 9.1 μL of master mix+compound mixture is aliquoted across 5 96-well plates. Reactions begin with final addition of 2 μL of DNA for a 11.1 μL reaction volume in each well. The entire plate is sealed, and incubated for 2 hrs at 30° C. After 2 hrs, quench the assay using 45 μL of PBS, and transfer 50 μL to a flat-bottom black microplate Quantify the sfGFP and mCherry signals from each well on each plate, taking 3 reads of each plate, and perform data analysis below.
In vitro transcription-translation assay data analysis: Each plate is read three times in channels for both sfGFP and mCherry signals. The average signal across these 3 reads is then calculated for further analysis. Control wells containing no DNA reporter are subtracted from reporter wells in the same column to remove auto-fluorescence of the lysate. Then, the ratio of sfGFP/mCherry is calculated per well, and these ratios are averaged across the triplicate experiments on the same plate. Finally, the ratio of each titration concentration is normalized to the no drug control to create the normalized stalling metric. […]

[4] = test system: CCND1; experiment: In vitro transcription-translation (IVTT) assay, CCND1 reporter; details: IVTT, HeLa S3 lysate, 2 hrs at 30° C.
How it was run: as §1

Compound | IC50 [2] [µM] | IC50 [3] [µM] | IC50 [4] [µM] | IC50 [1] [µM]
COc1ccc(C[C@H]2NC[C@H](O)[C@H]2OC(=O)NCCn2nc(C)cc2C)cc1 [V190415, (2R,3S,4S)-4-hydroxy-2-[(4-methoxyphenyl)methyl]pyrrolidin-3-yl N-[2-(3,5-dimethylpyrazol-1-yl)ethyl]carbamate] | > 30 | > 30 | > 30 | > 30
COc1ccc(C[C@H]2NC[C@H](O)[C@H]2OC(=O)NCc2ccnc(F)c2)cc1 [V190522, (2R,3S,4S)-4-hydroxy-2-[(4-methoxyphenyl)methyl]pyrrolidin-3-yl N-[(2-fluoropyridin-4-yl)methyl]carbamate] | < 10 | < 10 | < 10 | < 10
COc1ccc(C[C@H]2NC[C@H](O)[C@H]2OC(=O)NCCc2ccc3c(c2)CNC3)cc1 [V188344, (2R,3S,4S)-4-hydroxy-2-[(4-methoxyphenyl)methyl]pyrrolidin-3-yl N-[2-(2,3-dihydro-1H-isoindol-5-yl)ethyl]carbamate] | < 10 | < 10 | < 10 | < 10
COc1ccc(C[C@H]2NC[C@H](O)[C@H]2OC(=O)NCC#Cc2ccccc2)cc1 [V188315, (2R,3S,4S)-4-hydroxy-2-[(4-methoxyphenyl)methyl]pyrrolidin-3-yl N-(3-phenylprop-2-yn-1-yl)carbamate] | < 10 | < 10 | 20 to 30 | 10 to 20
O=C(NCc1cccc(F)c1)O[C@@H]1[C@@H](O)CN[C@@H]1Cc1ccc(-c2cncs2)cc1 [V190546, (2R,3S,4S)-4-hydroxy-2-{[4-(1,3-thiazol-5-yl)phenyl]methyl}pyrrolidin-3-yl N-[(3-fluorophenyl)methyl]carbamate] | < 10 | < 10 | < 10 | < 10
COc1ccc(C[C@H]2NC[C@H](O)[C@H]2OC(=O)NCc2ccc(Cl)s2)cc1 [V188373, (2R,3S,4S)-4-hydroxy-2-[(4-methoxyphenyl)methyl]pyrrolidin-3-yl N-[(5-chlorothiophen-2-yl)methyl]carbamate] | < 10 | < 10 | < 10 | < 10
COc1ccc(C[C@H]2NC[C@H](O)[C@H]2OC(=O)NCC[C@H]2CCCN2)cc1 [V188342, (2R,3S,4S)-4-hydroxy-2-[(4-methoxyphenyl)methyl]pyrrolidin-3-yl N-{2-[(2R)-pyrrolidin-2-yl]ethyl}carbamate] | 10 to 20 | < 10 | 20 to 30 | < 10
COc1ccc(C[C@H]2NC[C@H](O)[C@H]2OC(=O)NC[C@H]2CCN(C)C2)cc1 [V188306] | < 10 | < 10 | < 10 | < 10

Continued, in another order:

IC50 [2] [µM] | IC50 [3] [µM] | IC50 [4] [µM] | Compound | IC50 [1] [µM]
20 to 30 | < 10 | 10 to 20 | COc1ccc(C[C@H]2NC[C@H](O)[C@H]2OC(=O)NCC(F)(F)c2ccccc2)cc1 [V188165, (2R,3S,4S)-4-hydroxy-2-[(4-methoxyphenyl)methyl]pyrrolidin-3-yl N-(2,2-difluoro-2-phenylethyl)carbamate] | 20 to 30
< 10 | < 10 | 10 to 20 | COc1ccc(C[C@H]2NC[C@H](O)[C@H]2OC(=O)NCC2COC2)cc1 [V188299, (2R,3S,4S)-4-hydroxy-2-[(4-methoxyphenyl)methyl]pyrrolidin-3-yl N-(oxetan-3-ylmethyl)carbamate] | < 10
< 10 | < 10 | < 10 | COc1ccc(C[C@H]2NC[C@H](O)[C@H]2OC(=O)NCc2ccc(C3CNC3)cc2)cc1 [V190559, (2R,3S,4S)-4-hydroxy-2-[(4-methoxyphenyl)methyl]pyrrolidin-3-yl N-{[4-(azetidin-3-yl)phenyl]methyl}carbamate] | < 10
< 10 | < 10 | < 10 | COc1ccc(C[C@H]2NC[C@H](O)[C@H]2OC(=O)NCC2CCC2)cc1 [V188318, (2R,3S,4S)-4-hydroxy-2-[(4-methoxyphenyl)methyl]pyrrolidin-3-yl N-(cyclobutylmethyl)carbamate] | < 10
< 10 | < 10 | < 10 | COc1ccc(C[C@H]2NC[C@H](O)[C@H]2OC(=O)NCc2nnc(C)o2)cc1 [V188303, (2R,3S,4S)-4-hydroxy-2-[(4-methoxyphenyl)methyl]pyrrolidin-3-yl N-[(5-methyl-1,3,4-oxadiazol-2-yl)methyl]carbamate] | < 10
> 30 | 10 to 20 | > 30 | COc1ccc(C[C@H]2NC[C@H](O)[C@H]2OC(=O)NCC[C@@H]2CCCCN2)cc1 [V191902, (2R,3S,4S)-4-hydroxy-2-[(4-methoxyphenyl)methyl]pyrrolidin-3-yl N-{2-[(2S)-piperidin-2-yl]ethyl}carbamate] | 10 to 20
> 30 | > 30 | > 30 | COc1ccc(C[C@H]2NC[C@H](O)[C@H]2OC(=O)NC2CC3(CCNC3)C2)cc1 (stereo partly drawn) [V190538, (2R,3S,4S)-4-hydroxy-2-[(4-methoxyphenyl)methyl]pyrrolidin-3-yl N-{6-azaspiro[3.4]octan-2-yl}carbamate] | > 30
< 10 | < 10 | < 10 | COc1ccc(C[C@H]2NC[C@H](O)[C@H]2OC(=O)NCc2cccc(Cl)c2)cc1 [V191904, (2R,3S,4S)-4-hydroxy-2-[(4-methoxyphenyl)methyl]pyrrolidin-3-yl N-[(3-chlorophenyl)methyl]carbamate] | < 10
10 to 20 | 10 to 20 | > 30 | COc1ccc(C[C@H]2NC[C@H](O)[C@H]2OC(=O)NCc2ccc(C3CC3)cc2)cc1 [V188321, (2R,3S,4S)-4-hydroxy-2-[(4-methoxyphenyl)methyl]pyrrolidin-3-yl N-[(4-cyclopropylphenyl)methyl]carbamate] | > 30
